Experimental data from patent EP0240392A1, “Compounds of the cyclophosphazene type, process for their preparation and pharmaceutical preparation containing them” (CENTRE NATIONAL DE LA RECHERCHE SCIENTIFIQUE (CNRS), priority 1986, dated 1987).
Marks after values point to notes of the source that are not given here.

Test system: CARCINOME DU POUMON DE LEWIS
Experiment: Antitumour activity on Lewis lung carcinoma implanted i.m. in mice
Assay type: in vivo, souris C57Bl/6
Settings: 60 mg/kg i.p. x j 1,5,9
Description: Les tests d'activité antitumorale ont été conduits au sein du Screening and Pharmacology Group de l'E.O.R.T.C., implanté à l'Institut Mario Negri de Milan.
Ces essais ont été conduits soit en mono-injection à différentes doses au jour J+1 suivant la greffe de la tumeur, soit en poly-injections chroniques Q1D, soit en protocoles Q4D.

## O=P1(N(CCCl)CCCl)NCCCO1 (stereo not shown) [CPA, Cyclophosphamide, reference compound]
Jour 17
  Volume de la tumeur (d^2.D/2)cm^3 ± S.E.: 0,57±0,16* cm^3
Jour 20
  Volume de la tumeur (d^2.D/2)cm^3 ± S.E.: 1,30±0,17* cm^3
Jour 24
  Volume de la tumeur (d^2.D/2)cm^3 ± S.E.: 3,03±0,25* cm^3
Sacrifice jour 25
  Poids moyen de la tumeur (g ± S.E.): 4,14 ± 0,27 g
